Measurements as given in the supplement of paper PMC5579334.
± gives the standard deviation of the averaged measurements.

Columns and labels:
HS-PSS [1] = assay: drug sensitivity score (DSS, CellTiter-Glo viability, 72 h) (DSS (dimensionless)); higher = more sensitive; extreme values may be limits of the assay
Outline: (§1)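 MPNST cell lines and primary human Schwann cells (750–1000 cells per well) went into 384-well plates preprinted with each compound at five concentrations in 10-fold steps. Plates were incubated 72 h at 37 °C, 5% CO2. Viability was read as CellTiter-Glo ATP luminescence, scaled between vehicle and positive-control wells, with duplicates averaged where present. Percent inhibition is at the top concentration; drug sensitivity score and relative IC50 (censored at top concentration) come from four-parameter logistic fits.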

HS-Sch-2 [2] = assay: as above
Outline: as §1

[3] = test system: HSC1 (primary human Schwann cells); assay: as above
Outline: as §1

[4] = test system: HSC2 (primary human Schwann cells); assay: as above
Outline: as §1

S1507-2 [5] = assay: as above
Outline: as §1

S462 [6] = assay: as above
Outline: as §1

ST8814 [7] = assay: as above
Outline: as §1

STS26T [8] = assay: as above
Outline: as §1

YST-1 [9] = assay: as above
Outline: as §1

HS-PSS [10] = assay: drug sensitivity score (DSS, CellTox-Green cytotoxicity, 72 h) (DSS (dimensionless)); higher = more cytotoxic; extreme values may be limits of the assay
Outline: (§2)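 MPNST cell lines and primary human Schwann cells were incubated 72 h at 37 °C in 384-well plates holding five 10-fold compound dilutions. CellTox-Green was added before seeding at a final 1:1000 dilution and reported fluorescence from DNA released by disrupted cells. Signals were scaled to vehicle and positive-control wells, and cultures failing plate quality control were dropped. Drug sensitivity score and relative IC50 come from four-parameter logistic fits, with IC50 censored at the top concentration.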

[11] = test system: HSC1 (primary human Schwann cells); assay: as above
Outline: as §2

[12] = test system: HSC2 (primary human Schwann cells); assay: as above
Outline: as §2

S1507-2 [13] = assay: as above
Outline: as §2

ST8814 [14] = assay: as above
Outline: as §2

STS26T [15] = assay: as above
Outline: as §2

HS-PSS [16] = assay: % inhibition of CellTiter-Glo viability at highest tested concentration (72 h), relative to DMSO and benzethonium chloride controls; higher = more inhibition
Outline: as §1

HS-Sch-2 [17] = assay: as above
Outline: as §1

[18] = test system: HSC1 (primary human Schwann cells); assay: as above
Outline: as §1

[19] = test system: HSC2 (primary human Schwann cells); assay: as above
Outline: as §1

S1507-2 [20] = assay: as above
Outline: as §1

S462 [21] = assay: as above
Outline: as §1

ST8814 [22] = assay: as above
Outline: as §1

STS26T [23] = assay: as above
Outline: as §1

YST-1 [24] = assay: as above
Outline: as §1

SMILES	drug sensitivity score (HS-PSS [1])	drug sensitivity score (HS-Sch-2 [2])	drug sensitivity score [3]	drug sensitivity score [4]	drug sensitivity score (S1507-2 [5])	drug sensitivity score (S462 [6])	drug sensitivity score (ST8814 [7])	drug sensitivity score (STS26T [8])	drug sensitivity score (YST-1 [9])	drug sensitivity score (HS-PSS [10])	drug sensitivity score [11]	drug sensitivity score [12]	drug sensitivity score (S1507-2 [13])	drug sensitivity score (ST8814 [14])	drug sensitivity score (STS26T [15])	% inhibition (HS-PSS [16]) [%]	% inhibition (HS-Sch-2 [17]) [%]	% inhibition [18] [%]	% inhibition [19] [%]	% inhibition (S1507-2 [20]) [%]	% inhibition (S462 [21]) [%]	% inhibition (ST8814 [22]) [%]	% inhibition (STS26T [23]) [%]	% inhibition (YST-1 [24]) [%]
Cc1c2oc3c(C)ccc(C(=O)N[C@@H]4C(=O)N[C@H](C(C)C)C(=O)N5CCC[C@H]5C(=O)N(C)CC(=O)N(C)[C@@H](C(C)C)C(=O)O[C@@H]4C)c3nc-2c(C(=O)N[C@@H]2C(=O)N[C@H](C(C)C)C(=O)N3CCC[C@H]3C(=O)N(C)CC(=O)N(C)[C@@H](C(C)C)C(=O)O[C@@H]2C)c(N)c1=O [Dactinomycin] (max concentration tested 1000 nM)	25.1	32.5	30.8	33.5	23.4 ± 0.57	32.3 ± 1.7	25.3	31.9	37.4	6.19	12.7	14.7	5.68 ± 3.9	5.68	25.8	86.7	102	83	89.2	87 ± 3.5	99.1 ± 1.6	85.6	99	101
Cc1nc(C(=O)NCC(=O)O)c(O)c2ccc(Oc3ccccc3)cc12 [FG-4592] (max concentration tested 10000 nM)	5.17	5.13	0.0901	0.0248	0	0	0	0	0	0	0	0	0	0	0	49	74.7	13.3	12.3	-0.77 ± 1.2	-7 ± 5.2	7.03	0.0946	-7.68
Nc1ncnc2c1nc(N)n2[C@@H]1O[C@H](CO)[C@@H](O)[C@H]1O [8-amino-adenosine] (max concentration tested 50000 nM)	17.9	19.3	18.1	15.6	21.3 ± 0.37	20.2 ± 0.77	19.6	19.9	22.8	3.6	4.02	4.74	12.1 ± 6.4	14.7	16.9	101	102	98	96.7	99.405 ± 0.063	99.7 ± 0.63	98.4	100	102
CCS(=O)(=O)c1cccc(-c2cc(C(=O)NC3CCN(C)CC3)c(C)c3[nH]c4ncc(C)cc4c23)c1 [TAK-901] (max concentration tested 1000 nM)	5.46	3.76	7.19	8.24	1.99 ± 0.39	8.66 ± 0.25	3.64	7.82	10.1	0	0.0275	11	0	5.81	6.2	57.5	70.3	63.8	65.6	23.5 ± 3.2	80.6 ± 2.5	57.6	69.6	76.6
C[C@]1(c2nc3c(C(N)=O)cccc3[nH]2)CCCN1 [Veliparib] (max concentration tested 10000 nM)	0	0	0.338	0.954	1.93 ± 2.7	0.0431 ± 0.061	0	0	4.89	0	0	0	0	0	0	10	2.46	14.6	18.2	10.9 ± 5.5	12 ± 3.7	9.88	10.6	49
COc1cc2c(Oc3ccc(NC(=O)C4(C(=O)Nc5ccc(F)cc5)CC4)cc3F)ccnc2cc1OCCCN1CCOCC1 [Foretinib] (max concentration tested 1000 nM)	1.41	1.15	3.91	3.44	5.7 ± 0.45	3.22 ± 0.43	6.43	3.62	3.16	0.08	0	0	1.26 ± 0.61	2.96	4.03	20.9	31.7	56.5	53.2	58.7 ± 5.1	50.2 ± 3	67.5	48.4	52.2
